Results on eleven compounds are retold here after US5807855A, “1-piperazino-1,2-dihydroindene derivatives” (priority 1992, dated 1998).

The structures appear in SMILES notation. Where two headings read alike, the source gives them in different places.

The target of one test is T1, 5-HT2 receptors (Rattus norvegicus, UniProt P14842).
T1 construct: 5-HT2 receptors in membranes from rat cortex; from tissue; host or cells: membranes from rat cortex
Nature of the test: Inhibition of 3H-ketanserin binding to 5-HT2 receptors in membranes from rat cortex. The conditions noted are these: Receptor Binding, IC50, 5-HT2 3H-Ket. On the procedure:
Receptor binding studies.
5-HT2 receptors. Inhibition of ^3 H-ketanserin binding to 5-HT2 receptors in membranes from rat cortex was determined as described by Hyttel, J. Acta. Pharmacol. Toxicol.

The target of the next test is T2, DA D2 receptors (Rattus norvegicus, UniProt P61169).
T2 construct: DA D2 receptors in rat striatal membranes; from tissue; host or cells: rat striatal membranes
Put plainly: Inhibition of 3H-spiperone binding to DA D2 receptors in rat striatal membranes. The conditions noted are these: rat striatal membranes, 3H-spiperone; read-out: Receptor Binding; IC50, D2 3H-Spi.

A further test deals with DA D1 receptor (Rattus norvegicus, UniProt P18901). Put plainly: biochemical. The test is classed as binding. The conditions noted are these: IC50, D1 3H-SCH.
Where [1] appears, read: rat striatal membranes, 3H-SCH 23390, read-out: Receptor Binding.

Sequence of DA D1 receptor (P18901 whole entry): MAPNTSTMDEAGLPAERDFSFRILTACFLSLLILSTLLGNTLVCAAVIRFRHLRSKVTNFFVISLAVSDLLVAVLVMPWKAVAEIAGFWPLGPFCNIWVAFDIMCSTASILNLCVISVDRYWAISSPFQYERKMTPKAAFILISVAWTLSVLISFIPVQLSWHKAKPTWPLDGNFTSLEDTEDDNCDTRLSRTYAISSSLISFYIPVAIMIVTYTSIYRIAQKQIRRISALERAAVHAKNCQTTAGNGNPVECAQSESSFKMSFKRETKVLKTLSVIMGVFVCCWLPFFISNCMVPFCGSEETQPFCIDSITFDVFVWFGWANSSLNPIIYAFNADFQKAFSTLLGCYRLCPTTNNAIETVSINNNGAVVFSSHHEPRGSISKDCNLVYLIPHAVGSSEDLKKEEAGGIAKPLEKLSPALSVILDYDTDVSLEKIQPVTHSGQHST
T2 sequence (P61169 whole entry): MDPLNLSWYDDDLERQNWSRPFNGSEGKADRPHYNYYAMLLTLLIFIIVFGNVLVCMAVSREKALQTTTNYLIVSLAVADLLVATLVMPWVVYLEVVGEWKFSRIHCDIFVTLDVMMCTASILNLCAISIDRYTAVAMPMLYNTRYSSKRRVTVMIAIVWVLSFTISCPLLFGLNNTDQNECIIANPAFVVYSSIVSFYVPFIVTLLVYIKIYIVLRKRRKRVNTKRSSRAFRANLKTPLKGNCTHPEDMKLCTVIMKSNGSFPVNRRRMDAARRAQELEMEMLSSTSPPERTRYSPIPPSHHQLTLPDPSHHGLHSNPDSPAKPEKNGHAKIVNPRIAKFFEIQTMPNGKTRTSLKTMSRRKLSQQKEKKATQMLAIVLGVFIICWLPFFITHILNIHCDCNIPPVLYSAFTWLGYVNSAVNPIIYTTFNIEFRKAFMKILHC
T1 sequence (P14842 whole entry): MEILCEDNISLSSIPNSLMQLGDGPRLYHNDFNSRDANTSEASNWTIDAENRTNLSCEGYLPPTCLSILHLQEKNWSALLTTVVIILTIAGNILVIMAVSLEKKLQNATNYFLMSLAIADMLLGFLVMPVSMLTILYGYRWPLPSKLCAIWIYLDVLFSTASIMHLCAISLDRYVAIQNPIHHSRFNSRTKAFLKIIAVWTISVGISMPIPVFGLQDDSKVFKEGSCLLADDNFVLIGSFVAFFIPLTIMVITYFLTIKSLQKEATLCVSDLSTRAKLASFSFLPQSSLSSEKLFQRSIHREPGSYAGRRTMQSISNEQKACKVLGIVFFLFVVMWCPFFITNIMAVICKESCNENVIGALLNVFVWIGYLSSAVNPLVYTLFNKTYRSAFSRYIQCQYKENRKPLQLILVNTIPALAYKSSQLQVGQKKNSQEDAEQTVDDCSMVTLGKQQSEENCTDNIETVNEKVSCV

With `CN1CCN([C@@H]2C[C@@H](c3ccc(F)cc3)c3ccc(Br)cc32)CC1(C)C` (racemic) [Compound 8, (±)-Trans-4-[6-bromo-3-(4-fluorophenyl)-2,3-dihydro-1H-inden-1-yl]-1,2,2-trimethylpiperazine], the IC50 on 5-HT2 receptors was determined as 3 nM; at DA D2 receptors, 8.6 nM; on DA D1 receptor (Receptor Binding), 1.8 nM.
`CN1CCN([C@@H]2C[C@@H](c3ccc(F)cc3)c3cc(Cl)c(Cl)cc32)CC1(C)C` (racemic) [Compound 9, (±)-Trans-4-[5,6-dichloro-3-(4-fluorophenyl)-2,3-dihydro-1H-inden-1-yl]-1,2,2-trimethylpiperazine]: the values for the IC50 at 5-HT2 receptors, on DA D2 receptors and on DA D1 receptor (setting [1]) were 5.9 nM, 44 nM and 18 nM, respectively.
On to `CN1CCN([C@@H]2C[C@@H](c3ccccc3F)c3ccc(Cl)cc32)CC1(C)C` (racemic) [Compound 11, (±)-Trans-4-[6-chloro-3-(2-fluorophenyl)-2,3-dihydro-1H-inden-1-yl]-1,2,2-trimethylpiperazine], for which the values for the IC50 on 5-HT2 receptors, at DA D2 receptors and on DA D1 receptor (Receptor Binding) were 21 nM, 36 nM and 4.4 nM, respectively.
The matching figures for `CN1CCN([C@@H]2C[C@@H](c3cccc(F)c3)c3ccc(Cl)cc32)CC1(C)C` (racemic) [Compound 12, (±)-Trans-4-[6-chloro-3-(3-fluorophenyl)-2,3-dihydro-1H-inden-1-yl]-1,2,2-trimethylpiperazine]: 26 nM, 280 nM and 9.6 nM.
The matching figures for `CC1(C)CN([C@@H]2C[C@@H](c3ccsc3)c3ccc(Cl)cc32)CCN1` (racemic) [Compound 13, (±)-Trans-4-[6-chloro-3-(3-thienyl)-2,3-dihydro-1H-inden-1-yl]-2,2-dimethylpiperazine]: 1 nM, 8.2 nM and 1.4 nM.
In the same order, the values of `CN1CCN([C@@H]2C[C@@H](c3ccsc3)c3ccc(Cl)cc32)CC1(C)C` (racemic) [Compound 14, (±)-Trans-4-[6-chloro-3-(3-thienyl)-2,3-dihydro-1H-inden-1-yl]-1,2,2-trimethylpiperazine] are 1.7 nM, 6.1 nM and 0.76 nM.
`CN1CCN([C@@H]2C[C@@H](c3ccc(F)cc3)c3cc(Cl)ccc32)CC1(C)C` (racemic) [Compound 16, (±)-Trans-4-[5-chloro-3-(4-fluorophenyl)-2,3-dihydro-1H-inden-1-yl]-1,2,2-trimethylpiperazine]: the IC50 was determined as 9.3 nM on 5-HT2 receptors, 340 nM on DA D2 receptors and 37 nM on DA D1 receptor (Receptor Binding).
The matching figures for `CN1CCN([C@@H]2C[C@@H](c3ccc(F)cc3)c3cccc(Cl)c32)CC1(C)C` (racemic) [Compound 17, (±)-Trans-4-[7-chloro-3-(4-fluorophenyl)-2,3-dihydro-1H-inden-1-yl]-1,2,2-trimethylpiperazine]: 31 nM, 1200 nM and 32 nM.
As for `CCC1(CC)CN([C@@H]2C[C@@H](c3ccc(F)cc3)c3ccc(Cl)cc32)CCN1` (racemic) [Compound 23, (±)-Trans-4-[6-chloro-3-(4-fluorophenyl)-2,3-dihydro-1H-inden-1-yl]-2,2-diethylpiperazine], the IC50 was determined as 11 nM at 5-HT2 receptors, 36 nM at DA D2 receptors and 4.7 nM at DA D1 receptor (setting [1]).
In the same order, the values of `Fc1ccc([C@@H]2C[C@@H](N3CCNC4(CCCCC4)C3)c3cc(Cl)ccc32)cc1` (racemic) [Compound 31, (±)-Trans-4-[6-chloro-3-(4-fluorophenyl)-2,3-dihydro-1H-inden-1-yl]-1,4-diazaspiro[5.5]undecan] are 25 nM, 75 nM and 6.4 nM.
Regarding `CN1CCN([C@@H]2C[C@@H](c3ccc(F)cc3)c3cccc(F)c32)CC1(C)C` (racemic) [Compound 36, (±)-Trans-4-[7-fluoro-3-(4-fluorophenyl)-2,3-dihydro-1H-inden-1-yl]-1,2,2-trimethyl piperazine], the IC50 on 5-HT2 receptors stood at 9.8 nM; at DA D2 receptors, 74 nM; at DA D1 receptor (Receptor Binding), 3.8 nM.
